Measurements reported in US10442807B2, “Aryl substituted bicyclic compounds as herbicides” (FMC Corporation, priority 2015, dated 2019).

Key:
Assay type in all cases: in vivo
[1] = system: sedge, umbrella (small-flower umbrella sedge, Cyperus difformis); test: Test B flooded paddy test, visual plant response rating; settings: 250 g ai/ha; applied to paddy water at 2-leaf stage; rated after 13 to 15 days; scale 0 to 100, 0 is no effect, 100 is complete control
Procedure, shortened: (§1)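 Pots flooded to 3 cm above soil at treatment; compound applied directly into paddy water, depth held throughout. Greenhouse for 13 to 15 days, then visual rating versus untreated controls on a 0–100 scale (0 no effect, 100 complete control); dash means no result.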

[2] = system: rice (Oryza sativa); test: as above; settings: 250 g ai/ha; applied to paddy water at 2-leaf stage; rated after 13 to 15 days; scale 0 to 100, 0 is no effect, 100 is complete control
Procedure, shortened: as §1

[3] = system: barnyardgrass (Echinochloa crus-galli); test: as above; settings: 250 g ai/ha; applied to paddy water at 2-leaf stage; rated after 13 to 15 days; scale 0 to 100, 0 is no effect, 100 is complete control
Procedure, shortened: as §1

[4] = system: ducksalad (Heteranthera limosa); test: as above; settings: 250 g ai/ha; applied to paddy water at 2-leaf stage; rated after 13 to 15 days; scale 0 to 100, 0 is no effect, 100 is complete control
Procedure, shortened: as §1

[5] = system: foxtail, giant (giant foxtail, Setaria faberii); test: Test A preemergence, directed soil spray, visual injury rating; settings: approx. 10 d, 0 = no effect, 100 = complete control
Procedure, shortened: (§2)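 Seeds sown in loam/sand soil got a directed soil spray before emergence, or plants at one- to two-leaf stage (2-10 cm) were sprayed postemergence; chemical in non-phytotoxic solvent with surfactant. Greenhouse approx. 10 d, then visual injury vs untreated controls on 0 (no effect) to 100 (complete control) scale.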

[6] = system: barnyardgrass (Echinochloa crus-galli); test: as above; settings: approx. 10 d, 0 = no effect, 100 = complete control
Procedure, shortened: as §2

[7] = system: pigweed (Amaranthus retroflexus); test: as above; settings: approx. 10 d, 0 = no effect, 100 = complete control
Procedure, shortened: as §2

[8] = system: ryegrass, Italian (Italian ryegrass, Lolium multiflorum); test: as above; settings: approx. 10 d, 0 = no effect, 100 = complete control
Procedure, shortened: as §2

[9] = system: ragweed (common ragweed, Ambrosia elation); test: as above; settings: approx. 10 d, 0 = no effect, 100 = complete control
Procedure, shortened: as §2

[10] = system: kochia (Kochia scoparia); test: as above; settings: approx. 10 d, 0 = no effect, 100 = complete control
Procedure, shortened: as §2

[11] = system: foxtail, giant (giant foxtail, Setaria faberii); test: Test A postemergence application, visual injury rating; settings: approx. 10 d, 0 = no effect, 100 = complete control
Procedure, shortened: as §2

[12] = system: barnyardgrass (Echinochloa crus-galli); test: as above; settings: approx. 10 d, 0 = no effect, 100 = complete control
Procedure, shortened: as §2

[13] = system: galium (catchweed bedstraw, Galium aparine); test: as above; settings: approx. 10 d, 0 = no effect, 100 = complete control
Procedure, shortened: as §2

[14] = system: pigweed (Amaranthus retroflexus); test: as above; settings: approx. 10 d, 0 = no effect, 100 = complete control
Procedure, shortened: as §2

[15] = system: wheat (Triticum aestivum); test: as above; settings: approx. 10 d, 0 = no effect, 100 = complete control
Procedure, shortened: as §2

[16] = system: corn (Zea mays); test: as above; settings: approx. 10 d, 0 = no effect, 100 = complete control
Procedure, shortened: as §2

[17] = system: blackgrass (Alopecurus myosuroides); test: as above; settings: approx. 10 d, 0 = no effect, 100 = complete control
Procedure, shortened: as §2

[18] = system: ryegrass, Italian (Italian ryegrass, Lolium multiflorum); test: as above; settings: approx. 10 d, 0 = no effect, 100 = complete control
Procedure, shortened: as §2

[19] = system: ragweed (common ragweed, Ambrosia elation); test: as above; settings: approx. 10 d, 0 = no effect, 100 = complete control
Procedure, shortened: as §2

[20] = system: kochia (Kochia scoparia); test: as above; settings: approx. 10 d, 0 = no effect, 100 = complete control
Procedure, shortened: as §2

| Compound | Plant response rating, Flood, Sedge, Umbrella [1] | Plant response rating, Flood, Rice [2] | Plant response rating, Flood, Barnyardgrass [3] | Plant response rating, Flood, Ducksalad [4] | Foxtail, Giant plant response rating (0 to 100 scale) ([5]; 125 g ai/ha) | Foxtail, Giant plant response rating (0 to 100 scale) ([5]; 500 g ai/ha) | Barnyardgrass plant response rating (0 to 100 scale) ([6]; 125 g ai/ha) | Barnyardgrass plant response rating (0 to 100 scale) ([6]; 500 g ai/ha) | Pigweed plant response rating (0 to 100 scale) ([7]; 125 g ai/ha) | Pigweed plant response rating (0 to 100 scale) ([7]; 500 g ai/ha) | Ryegrass, Italian plant response rating (0 to 100 scale) ([8]; 125 g ai/ha) | Ryegrass, Italian plant response rating (0 to 100 scale) ([8]; 500 g ai/ha) | Ragweed plant response rating (0 to 100 scale) ([9]; 125 g ai/ha) | Ragweed plant response rating (0 to 100 scale) ([9]; 500 g ai/ha) | Kochia plant response rating (0 to 100 scale) ([10]; 125 g ai/ha) | Kochia plant response rating (0 to 100 scale) ([10]; 500 g ai/ha) | Foxtail, Giant plant response rating (0 to 100 scale) ([11]; 125 g ai/ha) | Foxtail, Giant plant response rating (0 to 100 scale) ([11]; 500 g ai/ha) | Barnyardgrass plant response rating (0 to 100 scale) ([12]; 125 g ai/ha) | Barnyardgrass plant response rating (0 to 100 scale) ([12]; 500 g ai/ha) | other results |
| --- | --- | --- | --- | --- | --- | --- | --- | --- | --- | --- | --- | --- | --- | --- | --- | --- | --- | --- | --- | --- | --- |
| Cc1ccc(C2Cn3cnnc3C2C(=O)Nc2ccccc2F)cc1 (stereo not drawn) [Compound 13] | 0 | 20 | 40 | 45 | 70 | 90 | 60 | 70 | 0 | 0 | 0 | 0 | 0 | 80 | 70 | 70 | 60 | 80 | 50 | 90 | Galium plant response rating (0 to 100 scale) ([13]; 125 g ai/ha): 40; Galium plant response rating (0 to 100 scale) ([13]; 500 g ai/ha): 40; Pigweed plant response rating (0 to 100 scale) ([14]; 125 g ai/ha): 0; Pigweed plant response rating (0 to 100 scale) ([14]; 500 g ai/ha): 0; Wheat plant response rating (0 to 100 scale) ([15]; 125 g ai/ha): 0; Wheat plant response rating (0 to 100 scale) ([15]; 500 g ai/ha): 0; Corn plant response rating (0 to 100 scale) ([16]; 125 g ai/ha): 0; Corn plant response rating (0 to 100 scale) ([16]; 500 g ai/ha): 20; Blackgrass plant response rating (0 to 100 scale) ([17]; 125 g ai/ha): 20; Blackgrass plant response rating (0 to 100 scale) ([17]; 500 g ai/ha): 40; Ryegrass, Italian plant response rating (0 to 100 scale) ([18]; 125 g ai/ha): 0; Ryegrass, Italian plant response rating (0 to 100 scale) ([18]; 500 g ai/ha): 0; Ragweed plant response rating (0 to 100 scale) ([19]; 125 g ai/ha): 0; Ragweed plant response rating (0 to 100 scale) ([19]; 500 g ai/ha): 30; Kochia plant response rating (0 to 100 scale) ([20]; 125 g ai/ha): 0; Kochia plant response rating (0 to 100 scale) ([20]; 500 g ai/ha): 30 |
| CSc1ccccc1NC(=O)C1c2nnc(C)n2CC1c1ccc(C)c(C)c1 (stereo not drawn) [Compound 14] | 0 | 0 | 20 | 60 | 0 | 60 | 0 | 30 | 0 | 0 | 0 | 0 | 0 | 0 | 0 | 0 | 0 | 20 | 0 | 20 | Galium plant response rating (0 to 100 scale) ([13]; 125 g ai/ha): 0; Galium plant response rating (0 to 100 scale) ([13]; 500 g ai/ha): 0; Pigweed plant response rating (0 to 100 scale) ([14]; 125 g ai/ha): 0; Pigweed plant response rating (0 to 100 scale) ([14]; 500 g ai/ha): 0; Wheat plant response rating (0 to 100 scale) ([15]; 125 g ai/ha): 0; Wheat plant response rating (0 to 100 scale) ([15]; 500 g ai/ha): 0; Corn plant response rating (0 to 100 scale) ([16]; 125 g ai/ha): 0; Corn plant response rating (0 to 100 scale) ([16]; 500 g ai/ha): 0; Blackgrass plant response rating (0 to 100 scale) ([17]; 125 g ai/ha): 0; Blackgrass plant response rating (0 to 100 scale) ([17]; 500 g ai/ha): 20; Ryegrass, Italian plant response rating (0 to 100 scale) ([18]; 125 g ai/ha): 0; Ryegrass, Italian plant response rating (0 to 100 scale) ([18]; 500 g ai/ha): 0; Ragweed plant response rating (0 to 100 scale) ([19]; 125 g ai/ha): 0; Ragweed plant response rating (0 to 100 scale) ([19]; 500 g ai/ha): 0; Kochia plant response rating (0 to 100 scale) ([20]; 125 g ai/ha): 0; Kochia plant response rating (0 to 100 scale) ([20]; 500 g ai/ha): 0 |
| CCc1ccc(C2Cn3c(C)nnc3C2C(=O)Nc2ccccc2SC)cc1 (stereo not drawn) [Compound 15] | 0 | 20 | 0 | 50 | 0 | 0 | 0 | 0 | 0 | 0 | 0 | 0 | 0 | 0 | 0 | 0 | 0 | 0 | 0 | 0 | Galium plant response rating (0 to 100 scale) ([13]; 125 g ai/ha): 0; Galium plant response rating (0 to 100 scale) ([13]; 500 g ai/ha): 0; Pigweed plant response rating (0 to 100 scale) ([14]; 125 g ai/ha): 0; Pigweed plant response rating (0 to 100 scale) ([14]; 500 g ai/ha): 0; Wheat plant response rating (0 to 100 scale) ([15]; 125 g ai/ha): 0; Wheat plant response rating (0 to 100 scale) ([15]; 500 g ai/ha): 0; Corn plant response rating (0 to 100 scale) ([16]; 125 g ai/ha): 0; Corn plant response rating (0 to 100 scale) ([16]; 500 g ai/ha): 0; Blackgrass plant response rating (0 to 100 scale) ([17]; 125 g ai/ha): 0; Blackgrass plant response rating (0 to 100 scale) ([17]; 500 g ai/ha): 0; Ryegrass, Italian plant response rating (0 to 100 scale) ([18]; 125 g ai/ha): 0; Ryegrass, Italian plant response rating (0 to 100 scale) ([18]; 500 g ai/ha): 0; Ragweed plant response rating (0 to 100 scale) ([19]; 125 g ai/ha): 0; Ragweed plant response rating (0 to 100 scale) ([19]; 500 g ai/ha): 0; Kochia plant response rating (0 to 100 scale) ([20]; 125 g ai/ha): 0; Kochia plant response rating (0 to 100 scale) ([20]; 500 g ai/ha): 0 |
| Cc1ccc(C2Cn3cnnc3C2C(=O)Nc2cccc(F)c2F)cc1C (stereo not drawn) [Compound 16] | 0 | 15 | 50 | 75 | 90 | 90 | 70 | 90 | 0 | 0 | 0 | 60 | 0 | 50 | 70 | 80 | 60 | 80 | 60 | 80 | Galium plant response rating (0 to 100 scale) ([13]; 125 g ai/ha): 40; Galium plant response rating (0 to 100 scale) ([13]; 500 g ai/ha): 50; Pigweed plant response rating (0 to 100 scale) ([14]; 125 g ai/ha): 0; Pigweed plant response rating (0 to 100 scale) ([14]; 500 g ai/ha): 0; Wheat plant response rating (0 to 100 scale) ([15]; 125 g ai/ha): 0; Wheat plant response rating (0 to 100 scale) ([15]; 500 g ai/ha): 50; Corn plant response rating (0 to 100 scale) ([16]; 125 g ai/ha): 0; Corn plant response rating (0 to 100 scale) ([16]; 500 g ai/ha): 70; Blackgrass plant response rating (0 to 100 scale) ([17]; 125 g ai/ha): 0; Blackgrass plant response rating (0 to 100 scale) ([17]; 500 g ai/ha): 60; Ryegrass, Italian plant response rating (0 to 100 scale) ([18]; 125 g ai/ha): 0; Ryegrass, Italian plant response rating (0 to 100 scale) ([18]; 500 g ai/ha): 50; Ragweed plant response rating (0 to 100 scale) ([19]; 125 g ai/ha): 0; Ragweed plant response rating (0 to 100 scale) ([19]; 500 g ai/ha): 50; Kochia plant response rating (0 to 100 scale) ([20]; 125 g ai/ha): 30; Kochia plant response rating (0 to 100 scale) ([20]; 500 g ai/ha): 30 |
